US9796907B2, “Invert emulsion gravel pack fluid and method” (Halliburton Energy Services, Inc., priority 2013, dated 2017)

System: marine juvenile fish Cyprinodont varieties
Assay: Ecotoxicity to marine juvenile fish
Assay type: in vivo
Text: In addition, the fluid of the disclosure should have an acceptable health, safety, and environmental profile. The dimer diamine (or fatty acid dimer diamine) and polyurea components comprising the suspension agent are environmentally compatible.

CCCCCCCCCC(CCCCCCCCN)C(CCCCCCCC)CCCCCCCCCN (stereo not shown) [fatty acid dimer diamine, C36 fatty dimer diamine]
ecotoxicity to marine juvenile fish: low ecotoxicity
